Measured values as given in US5281596A, “Antibacterial drugs for fish” (Bayer Aktiengesellschaft, priority 1986, dated 1994).
≈ marks a conversion by molar mass, not a printed value. Structures can show the parent of a compound that is named as a salt. Where two headings read alike, the source gives them in different places.

Tests used:
Assay in all cases: In vitro antibacterial activity on pathogenic bacteria for fish (agar MIC, Test Example 1)
Assay type in all cases: cell-based
[1] = test system: Vibrio anguillarum; details: 20 h, 25-30 °C; for MIC: Vibrio anguillarum, read-out: MIC (minimum growth-inhibition concentration); for MIC (minimum growth-inhibition concentration): Mueller-Hinton agar
Protocol: (§1) In vitro antibacterial activity on pathogenic-bacteria for fish
(§2) Each of the test strains was cultured over-night, and each culture broth (containing about 10^6 cells/ml) was innoculated in Mueller-Hinton agar (DIFCO) supplied with 1.0-2.0% sodium chloride and containing the test compound at each specified concentration.

[2] = test system: Aeromonas hydrophila; details: 20 h; for MIC: Aeromonas hydrophila; for MIC (minimum growth-inhibition concentration): Mueller-Hinton agar
Protocol: as §1, §2

[3] = test system: Pasteurella piscicida; details: 20 h; for MIC: Photobacterium damselae; for MIC (minimum growth-inhibition concentration): Mueller-Hinton agar
Protocol: as §1, §2

[4] = Vibrio anguillarum strain NA8340, Mueller-Hinton agar
[5] = Vibrio anguillarum strain NA8341, Mueller-Hinton agar
[6] = Vibrio anguillarum strain NA8346, Mueller-Hinton agar
[7] = Vibrio anguillarum strain NA8347, Mueller-Hinton agar
[8] = Vibrio anguillarum strain NH8410, Mueller-Hinton agar
[9] = Vibrio anguillarum strain NA8340
[10] = Vibrio anguillarum strain NA8341
[11] = Vibrio anguillarum strain NA8346
[12] = Vibrio anguillarum strain NA8347
[13] = Vibrio anguillarum strain NH8410
[14] = Aeromonas hydrophila strain C 44, 25-30 °C
[15] = Aeromonas hydrophila strain KA8301, 25-30 °C
[16] = Aeromonas hydrophila strain KA8414, 25-30 °C
[17] = Aeromonas hydrophila strain KA8416, 25-30 °C
[18] = Aeromonas hydrophila strain M 183, 25-30 °C
[19] = Pasteurella piscicida strain EH8304, 25-30 °C
[20] = Pasteurella piscicida strain EH8309, 25-30 °C
[21] = Pasteurella piscicida strain EH8312, 25-30 °C
[22] = Pasteurella piscicida strain NG8319, 25-30 °C
[23] = Aeromonas hydrophila strain C 44, Mueller-Hinton agar, 25-30 °C, read-out: MIC (minimum growth-inhibition concentration)
[24] = Aeromonas hydrophila strain KA8301, Mueller-Hinton agar, 25-30 °C, read-out: MIC (minimum growth-inhibition concentration)
[25] = Aeromonas hydrophila strain KA8414, Mueller-Hinton agar, 25-30 °C, read-out: MIC (minimum growth-inhibition concentration)
[26] = Aeromonas hydrophila strain KA8416, Mueller-Hinton agar, 25-30 °C, read-out: MIC (minimum growth-inhibition concentration)
[27] = Aeromonas hydrophila strain M 183, Mueller-Hinton agar, 25-30 °C, read-out: MIC (minimum growth-inhibition concentration)
[28] = Pasteurella piscicida strain EH8304, Mueller-Hinton agar, 25-30 °C, read-out: MIC (minimum growth-inhibition concentration)
[29] = Pasteurella piscicida strain EH8309, Mueller-Hinton agar, 25-30 °C, read-out: MIC (minimum growth-inhibition concentration)
[30] = Pasteurella piscicida strain EH8312, Mueller-Hinton agar, 25-30 °C, read-out: MIC (minimum growth-inhibition concentration)
[31] = Pasteurella piscicida strain EH8313, Mueller-Hinton agar, 25-30 °C, read-out: MIC (minimum growth-inhibition concentration)
[32] = Pasteurella piscicida strain NG8319, Mueller-Hinton agar, 25-30 °C, read-out: MIC (minimum growth-inhibition concentration)
[33] = Pasteurella piscicida strain EH8313, 25-30 °C

SMILES	MIC [1, 4]	MIC [1, 5]	MIC [1, 6]	MIC [1, 7]	MIC [1, 8]	MIC (minimum growth-inhibition concentration) [1, 9]	MIC (minimum growth-inhibition concentration) [1, 10]	MIC (minimum growth-inhibition concentration) [1, 11]	MIC (minimum growth-inhibition concentration) [1, 12]	MIC (minimum growth-inhibition concentration) [1, 13]	MIC (minimum growth-inhibition concentration) [2, 14]	MIC (minimum growth-inhibition concentration) [2, 15]	MIC (minimum growth-inhibition concentration) [2, 16]	MIC (minimum growth-inhibition concentration) [2, 17]	MIC (minimum growth-inhibition concentration) [2, 18]	MIC (minimum growth-inhibition concentration) [3, 19]	MIC (minimum growth-inhibition concentration) [3, 20]	MIC (minimum growth-inhibition concentration) [3, 21]	MIC (minimum growth-inhibition concentration) [3, 22]	MIC [2, 23]	further results
O=C(O)c1cn(C2CC2)c2cc(N3CCNCC3)c(F)cc2c1=O [Compound A, hydrochloride of 1-cyclopropyl-6-fluoro-1,4-dihydro-4-oxo-7-piperazino-quinoline-3-carboxylic acid]	< 0.025 µg/mL	< 0.025 µg/mL	< 0.025 µg/mL	< 0.025 µg/mL	< 0.025 µg/mL																MIC ([2]; read-out: MIC (minimum growth-inhibition concentration), Aeromonas hydrophila strain C 44, Mueller-Hinton agar, 25-30 °C): < 0.025 µg/mL; MIC ([2]; read-out: MIC (minimum growth-inhibition concentration), Aeromonas hydrophila strain KA8301, Mueller-Hinton agar, 25-30 °C): < 0.025 µg/mL; MIC ([2]; read-out: MIC (minimum growth-inhibition concentration), Aeromonas hydrophila strain KA8414, Mueller-Hinton agar, 25-30 °C): < 0.025 µg/mL; MIC ([2]; read-out: MIC (minimum growth-inhibition concentration), Aeromonas hydrophila strain KA8416, Mueller-Hinton agar, 25-30 °C): < 0.025 µg/mL; MIC ([2]; read-out: MIC (minimum growth-inhibition concentration), Aeromonas hydrophila strain M 183, Mueller-Hinton agar, 25-30 °C): < 0.025 µg/mL; MIC ([3]; read-out: MIC (minimum growth-inhibition concentration), Pasteurella piscicida strain EH8304, Mueller-Hinton agar, 25-30 °C): 0.05 µg/mL; MIC ([3]; read-out: MIC (minimum growth-inhibition concentration), Pasteurella piscicida strain EH8309, Mueller-Hinton agar, 25-30 °C): < 0.025 µg/mL; MIC ([3]; read-out: MIC (minimum growth-inhibition concentration), Pasteurella piscicida strain EH8312, Mueller-Hinton agar, 25-30 °C): 0.05 µg/mL; MIC ([3]; read-out: MIC (minimum growth-inhibition concentration), Pasteurella piscicida strain NG8319, Mueller-Hinton agar, 25-30 °C): < 0.025 µg/mL
O=C(O)c1cn(C2CC2)c2cc(N3CCNCC3)c(F)cc2c1=O [Compound B, monohydrate of hydrochloride of 1-cyclopropyl-6-fluoro-1,4-dihydro-4-oxo-7-piperazino-quinoline-3-carboxylic acid]						0.025 µg/mL	0.025 µg/mL	0.025 µg/mL	0.025 µg/mL	0.025 µg/mL	< 0.0125 µg/mL	< 0.0125 µg/mL	< 0.0125 µg/mL	< 0.0125 µg/mL	< 0.0125 µg/mL	0.025 µg/mL	< 0.0125 µg/mL	0.025 µg/mL	0.025 µg/mL		MIC ([3]; read-out: MIC (minimum growth-inhibition concentration), Pasteurella piscicida strain EH8313, Mueller-Hinton agar, 25-30 °C): 0.025 µg/mL
CN1CCN(c2cc3c(cc2F)c(=O)c(C(=O)O)cn3C2CC2)CC1 [Compound C, hydrochloride of 1-cyclopropyl-6-fluoro-1,4-dihydro-4-oxo-7-(4-methylpiperazino)quinoline-3-carboxylic acid]	< 0.025 µg/mL	< 0.025 µg/mL	< 0.025 µg/mL	< 0.025 µg/mL	< 0.025 µg/mL															< 0.025 µg/mL	MIC [2, 24]: < 0.025 µg/mL; MIC [2, 25]: < 0.025 µg/mL; MIC [2, 26]: < 0.025 µg/mL; MIC [2, 27]: < 0.025 µg/mL; MIC [3, 28]: 0.05 µg/mL; MIC [3, 29]: 0.05 µg/mL; MIC [3, 30]: 0.05 µg/mL; MIC [3, 31]: 0.05 µg/mL; MIC [3, 32]: 0.05 µg/mL
CCN1CCN(c2cc3c(cc2F)c(=O)c(C(=O)O)cn3C2CC2)CC1 [Compound E, dihydrate of hydrochloride of 1-cyclopropyl-6-fluoro-1,4-dihydro-4-oxo-7-(4-ethylpiperazino)-quinoline-3-carboxylic acid]						0.05 µg/mL	0.05 µg/mL	0.05 µg/mL	0.05 µg/mL	0.05 µg/mL	< 0.025 µg/mL	0.05 µg/mL	< 0.025 µg/mL	< 0.025 µg/mL	< 0.025 µg/mL	0.05 µg/mL	0.05 µg/mL	0.05 µg/mL	0.05 µg/mL		MIC (minimum growth-inhibition concentration) [3, 33]: 0.05 µg/mL
O=C(O)c1cn(C2CC2)c2cc(N3CCN(CCO)CC3)c(F)cc2c1=O [Compound F, hydrochloride of 1-cyclopropyl-6-fluoro-1,4-dihydro-4-oxo-7-(4-β-hydroxyethyl-piperazino)-quinoline-3-carboxylic acid]	0.1 µg/mL	0.1 µg/mL	0.1 µg/mL	0.05 µg/mL	0.1 µg/mL															< 0.025 µg/mL	MIC [2, 24]: 0.05 µg/mL; MIC [2, 25]: < 0.025 µg/mL; MIC [2, 26]: < 0.025 µg/mL; MIC [2, 27]: < 0.025 µg/mL; MIC [3, 28]: 0.1 µg/mL; MIC [3, 29]: 0.1 µg/mL; MIC [3, 30]: 0.1 µg/mL; MIC [3, 31]: 0.1 µg/mL; MIC [3, 32]: 0.1 µg/mL
CCN1CCN(c2cc3c(cc2F)c(=O)c(C(=O)O)cn3C2CC2)CC1 [Compound G, embonate of 1-cyclopropyl-6-fluoro-1,4-dihydro-4-oxo-7-(4-ethylpiperazino)-quinoline-3-carboxylic acid]						0.05 µg/mL (≈ 0.139 µM)	0.05 µg/mL (≈ 0.139 µM)	0.05 µg/mL (≈ 0.139 µM)	0.05 µg/mL (≈ 0.139 µM)	0.05 µg/mL (≈ 0.139 µM)	0.05 µg/mL (≈ 0.139 µM)	0.05 µg/mL (≈ 0.139 µM)	0.05 µg/mL (≈ 0.139 µM)	0.05 µg/mL (≈ 0.139 µM)	0.05 µg/mL (≈ 0.139 µM)	0.1 µg/mL (≈ 0.278 µM)	0.1 µg/mL (≈ 0.278 µM)	0.05 µg/mL (≈ 0.139 µM)	0.01 µg/mL (≈ 0.0278 µM)		MIC (minimum growth-inhibition concentration) [3, 33]: 0.05 µg/mL (≈ 0.139 µM)
CCOC(=O)c1cn(C2CC2)c2cc(N3CCN(CC)CC3)c(F)cc2c1=O [Compound H, ethyl 1-cyclopropyl-6-fluoro-1,4-dihydro-4-oxo-7-(4-ethylpiperazino)-quinoline-3-carboxylate]	25 µg/mL (≈ 64.5 µM)	25 µg/mL (≈ 64.5 µM)	12.5 µg/mL (≈ 32.3 µM)	12.5 µg/mL (≈ 32.3 µM)	12.5 µg/mL (≈ 32.3 µM)															50 µg/mL (≈ 129 µM)	MIC [2, 24]: 12.5 µg/mL (≈ 32.3 µM); MIC [2, 25]: 25 µg/mL (≈ 64.5 µM); MIC [2, 26]: 12.5 µg/mL (≈ 32.3 µM); MIC [2, 27]: 12.5 µg/mL (≈ 32.3 µM); MIC [3, 28]: 25 µg/mL (≈ 64.5 µM); MIC [3, 29]: 25 µg/mL (≈ 64.5 µM); MIC [3, 30]: 12.5 µg/mL (≈ 32.3 µM); MIC [3, 31]: 12.5 µg/mL (≈ 32.3 µM); MIC [3, 32]: 25 µg/mL (≈ 64.5 µM)
